Measured values as given in patent publication US11661437B2, “Steroid derivative regulators, method for preparing the same, and uses thereof” (priority 2018, dated 2023).

Tested on: GABA-A receptor
Assay: 35S-TBPS binding assay on rat cerebral cortex cell membrane
Set-up: species or system Sprague-Dawley rat
Conditions: 2 nM 35S-TBPS, GABA added, read-out: 35S-TBPS bindng test, IC50 on inhibiting the TBPS binding activity
Protocol: 1.2.1 Extraction of Cerebral Cortex Cell Membrane:
1. The cerebral cortex of male Sprague-Dawley rat was isolated.
2. A pre-chilled 0.32 M sucrose solution (one tablet of protease inhibitor was added per 100 ml) was added to the cerebral cortex (the volume of sucrose solution was 10 times the volume of the cerebral cortex). The mixture was crushed with a 50 ml glass tissue homogenizer in batches and mixed well.
3. The mixture was centrifuged at 1500 g, 4° C. for 10 minutes, and the supernatant was collected.
4. The mixture was centrifuged at 20000 g, 4° C. for 30 minutes, and the supernatant was discarded.
5. The precipitate was resuspended with the pre-chilled phosphate buffer saline (PBS) (one tablet of protease inhibitor was added per 100 ml). An average of 4 ml of PBS was added per rat, and the mixture was mixed well with a glass tissue homogenizer.
6. The mixture was centrifuged at 10000 g, 4° C. for 10 minutes, and the supernatant was discarded.
7. Steps 5 and 6 were repeated three times.
8. Finally, the precipitate was resuspended with 4 volumes of PBS. The resulting solution was dispensed, frozen in liquid nitrogen, and stored at −80° C.
9. The protein concentration was measured by the bicinchoninic acid (BCA) method.
1.2.2 ^35S-TBPS Binding Assay
1. 230 μL of PBS was added to each well of a well plate with 1.1 ml volume.
2. 60 μL of the cerebral cortex cell membrane (5 μg/μL) solution was added to each well, and the mixture was mixed well.
3. The test compound (3 μL per well) was added, and the plate was incubated at 25° C. for 5 minutes. The DMSO concentration was 1%. The initial compound concentration was 1 NM, and a 3-fold dilution in gradient was carried out to obtain a total of 8 gradients and 2 replicates. 1% DMSO was used as a negative control, and 10 μM P026-2 was used as a positive control.
4. GABA was added at a final concentration of […], and incubated at 25° C. for 5 minutes. 1 mM GABA solution was formulated, and 1.5 μL of the solution was added to each well.
5. ^35S-TBPS was added at a final concentration of 2 nM. The concentration of isotope mother solution was 9.7 μM. After dilution with PBS for 100 times, 6 μL of the diluted isotope solution was added to each well.
6. The plate was incubated at 4° C. for 20 hours.
7. The FilterMate GF/C plate was pre-treated with 0.5% PEI, and incubated at 4° C. for 1 hour.
8. The FilterMate GF/C plate was washed with Universal Harvester twice, 50 ml PBS each time.
9. The reaction solution was transferred to the GF/C plate, and each well was washed 4 times with 900 μL PBS.
10. The washed GF/C plate was placed at 55° C. and dried for 10 minutes.
11. 40 μL of scintillation solution was added to each well, and the CPM value was read with TopCount.
1.2.3 Experimental Data Processing Method:
In the experiment, the CPM (counts per minute) value was read with TopCount. According to the readings of the High control (DMSO) and the Low control (10 μM of the positive compound) experimental groups, the % inhibition was calculated based on the following formula: % Inhibition=100×(CPMHigh control−CPMSample)/(CPMHigh control−CPMLow control)
The IC50 of the compound was calculated according to the following 4-parameter nonlinear logic formula: Y=Bottom+(Top−Bottom)/(1+10^((Log IC50−X)*Hill Slope)),
The effect of the compound of the present invention on the TBPS binding activity was determined by the above test, and the measured IC50 values are shown in Table 1.

Row | SMILES | IC50
1 | C[C@@]1(O)CC[C@@]2(F)[C@H](CC[C@H]3[C@@H]4CC[C@H](C(=O)Cn5cc(C#N)c(C6CC6)n5)[C@@]4(C)CC[C@@H]32)C1 [Example 40, 3-Cyclopropyl-1-(2-((3R,5R,8S,9S,10R,13S,14S,17S)-10-fluoro-3-hydroxy-3,13-dimethylhexadecahydro-1H-cyclopenta[a]phenanthren-17-yl)-2-oxoethyl)-1H-pyrazole-4-carbonitrile] | 12 nM
2 | C[C@@]1(O)CC[C@@]2(F)[C@H](CC[C@H]3[C@@H]4CC[C@H](C(=O)CNc5cnoc5)[C@@]4(C)CC[C@@H]32)C1 [Example 45, 1-((3R,5R,8S,9S,10R,13S,14S,17S)-10-Fluoro-3-hydroxy-3,13-dimethylhexadecahydro-1H-cyclopenta[a]phenanthren-17-yl)-2-(isoxazol-4-ylamino)ethan-1-one] | 34.4 nM
3 | COc1ccc2nn(CC(=O)[C@H]3CC[C@H]4[C@@H]5CC[C@@H]6C[C@](C)(O)CC[C@]6(F)[C@H]5CC[C@]34C)nc2c1 [Example 46, 1-((3R,5R,8S,9S,10R,13S,14S,17S)-10-Fluoro-3-hydroxy-3,13-dimethylhexadecahydro-1H-cyclopenta[a]phenanthren-17-yl)-2-(5-methoxy-2H-benzo[d][1,2,3]triazol-2-yl)ethan-1-one] | 5.6 nM
4 | COc1ccc2nnn(CC(=O)[C@H]3CC[C@H]4[C@@H]5CC[C@@H]6C[C@](C)(O)CC[C@]6(F)[C@H]5CC[C@]34C)c2c1 [Example 47, 1-((3R,5R,8S,9S,10R,13S,14S,17S)-10-Fluoro-3-hydroxy-3,13-dimethylhexadecahydro-1H-cyclopenta[a]phenanthren-17-yl)-2-(6-methoxy-1H-benzo[d][1,2,3]triazol-1-yl)ethan-1-one] | 7.3 nM
5 | COc1ccc2c(c1)nnn2CC(=O)[C@H]1CC[C@H]2[C@@H]3CC[C@@H]4C[C@](C)(O)CC[C@]4(F)[C@H]3CC[C@]12C [Example 48, 1-((3R,5R,8S,9S,10R,13S,14S,17S)-10-Fluoro-3-hydroxy-3,13-dimethylhexadecahydro-1H-cyclopenta[a]phenanthren-17-yl)-2-(5-methoxy-1H-benzo[d][1,2,3]triazol-1-yl)ethan-1-one] | 7.3 nM
6 | C[C@@]1(O)CC[C@@]2(F)[C@H](CC[C@H]3[C@@H]4CC[C@H](C(=O)COc5cncnc5)[C@@]4(C)CC[C@@H]32)C1 [Example 49, 1-((3R,5R,8S,9S,10R,13S,14S,17S)-10-Fluoro-3-hydroxy-3,13-dimethylhexadecahydro-1H-cyclopenta[a]phenanthren-17-yl)-2-(pyrimidin-5-yloxy)ethan-1-one] | 48 nM
7 | C[C@@]1(O)CC[C@@]2(F)[C@H](CC[C@H]3[C@@H]4CC[C@H](C(=O)Cn5cc(-c6ncco6)cn5)[C@@]4(C)CC[C@@H]32)C1 [Example 52, 1-((3R,5R,8S,9S,10R,13S,14S,17S)-10-Fluoro-3-hydroxy-3,13-dimethylhexadecahydro-1H-cyclopenta[a]phenanthren-17-yl)-2-(4-(oxazol-2-yl)-1H-pyrazol-1-yl)ethan-1-one] | 23 nM
8 | CSc1cnn(CC(=O)[C@H]2CC[C@H]3[C@@H]4CC[C@@H]5C[C@](C)(O)CC[C@]5(F)[C@H]4CC[C@]23C)c1 [Example 55, 1-((3R,5R,8S,9S,10R,13S,14S,17S)-10-Fluoro-3-hydroxy-3,13-dimethylhexadecahydro-1H-cyclopenta[a]phenanthren-17-yl)-2-(4-(methylthio)-1H-pyrazol-1-yl)ethan-1-one] | 42.5 nM
9 | C[C@@]1(O)CC[C@@]2(F)[C@H](CC[C@H]3[C@@H]4CC[C@H](C(=O)Cn5cc([N+](=O)[O-])cn5)[C@@]4(C)CC[C@@H]32)C1 [Example 58, 1-((3R,5R,8S,9S,10R,13S,14S,17S)-10-Fluoro-3-hydroxy-3,13-dimethylhexadecahydro-1H-cyclopenta[a]phenanthren-17-yl)-2-(4-nitro-1H-pyrazol-1-yl)ethan-1-one] | 37.8 nM
10 | CCOC(=O)c1cnn(CC(=O)[C@H]2CC[C@H]3[C@@H]4CC[C@@H]5C[C@](C)(O)CC[C@]5(F)[C@H]4CC[C@]23C)c1 [Example 59, Ethyl 1-(2-((3R,5R,8S,9S,10R,13S,14S,17S)-10-fluoro-3-hydroxy-3,13-dimethylhexadecahydro-1H-cyclopenta[a]phenanthren-17-yl)-2-oxoethyl)-1H-pyrazole-4-carboxylate] | 9.4 nM
11 | C[C@@]1(O)CC[C@@]2(F)[C@H](CC[C@H]3[C@@H]4CC[C@H](C(=O)Cn5cc(C(=O)N6CCC6)cn5)[C@@]4(C)CC[C@@H]32)C1 [Example 62, 2-(4-(Azetidine-1-carbonyl)-1H-pyrazol-1-yl)-1-((3R,5R,8S,9S,10R,13S,14S,17S)-10-fluoro-3-hydroxy-3,13-dimethylhexadecahydro-1H-cyclopenta[a]phenanthren-17-yl)ethan-1-one] | 7.1 nM
12 | C[C@@]1(O)CC[C@]2(F)C3CC[C@]4(C)[C@@H](C(=O)Cn5ncc(C6CC6)n5)CC[C@H]4[C@@H]3CC[C@@H]2C1 (stereo partly drawn) [Example 63, 2-(4-Cyclopropyl-2H-1,2,3-triazol-2-yl)-1-((3R,5R,8S,10R,13S,14S,17S)-10-fluoro-3-hydroxy-3,13-dimethylhexadecahydro-1H-cyclopenta[a]phenanthren-17-yl)ethan-1-one] | 25.8 nM
13 | C[C@@]1(O)CC[C@]2(F)C3CC[C@]4(C)[C@@H](C(=O)Cn5cc(C6CC6)nn5)CC[C@H]4[C@@H]3CC[C@@H]2C1 (stereo partly drawn) [Example 64, 2-(4-Cyclopropyl-1H-1,2,3-triazol-1-yl)-1-((3R,5R,8S,10R,13S,14S,17S)-10-fluoro-3-hydroxy-3,13-dimethylhexadecahydro-1H-cyclopenta[a]phenanthren-17-yl)ethan-1-one] | 24.8 nM
14 | C[C@]1(O)CC[C@@]2(F)[C@H](CC[C@H]3[C@@H]4CC[C@H](C(=O)CNS(=O)(=O)c5ccccc5)[C@@]4(C)CC[C@@H]32)C1 [Example 71, N-(2-((3S,5R,8S,9S,10R,13S,14S,17S)-10-Fluoro-3-hydroxy-3,13-dimethylhexadecahydro-1H-cyclopenta[a]phenanthren-17-yl)-2-oxoethyl)benzenesulfonamide] | 49 nM
